Source: PubChem BioAssay (NCI)
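Grown in 96-well plates, cells were treated for 48 hours with each compound at five concentrations. Insufficient inhibition: endpoint recorded as highest concentration tested. TGI denotes the concentration required for complete inhibition of growth.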

Columns and labels:
Test in all cases: NCI-60 cell line screen, 48 h
[1] = test system: HCC-2998 colon
[2] = test system: HCT-116 colon
[3] = test system: K-562 leukemia
[4] = test system: LOX IMVI melanoma
[5] = test system: MDA-MB-231 breast
[6] = test system: MDA-N
[7] = test system: NCI-H226 lung
[8] = test system: OVCAR-5 ovarian
[9] = test system: SK-MEL-28 melanoma
[10] = test system: TK-10 renal

CCOC(=O)c1cc(C)nc2c1c(=O)n(-c1ccccc1)c(=O)n2CCCCN1CCN(c2ncccn2)CC1
TGI [1]: > 100 µM | TGI [2]: > 100 µM | TGI [3]: > 100 µM | TGI [4]: > 100 µM | TGI [5]: > 100 µM | TGI [6]: > 100 µM | TGI [7]: > 100 µM | TGI [8]: > 100 µM | TGI [9]: > 100 µM | TGI [10]: > 100 µM

CN(C)S(=O)(=O)c1nc(Cl)c2[nH]cnc2n1
TGI [1]: > 100 µM | TGI [2]: > 100 µM | TGI [3]: > 100 µM | TGI [4]: > 100 µM | TGI [5]: > 100 µM | TGI [6]: > 100 µM | TGI [7]: > 100 µM | TGI [8]: > 100 µM | TGI [9]: > 100 µM | TGI [10]: > 100 µM

Fc1ccc(C(OCCN2CCC3CCC(C2)N3C/C=C/c2cccs2)c2ccc(F)cc2)cc1 (stereo not drawn)
TGI [1]: 12.9 µM | TGI [2]: 16.3 µM | TGI [4]: 18.9 µM | TGI [5]: 21.3 µM | TGI [6]: 22 µM | TGI [7]: 22.1 µM | TGI [8]: 25.9 µM | TGI [9]: 19.1 µM | TGI [10]: 24.3 µM

C(=N\NC1=NCCN1)/c1ccc2ccccc2c1
TGI [1]: 31.2 µM | TGI [2]: 28.9 µM | TGI [3]: 32.6 µM | TGI [4]: 26.7 µM | TGI [5]: 35.3 µM | TGI [6]: 27.9 µM | TGI [7]: 51.2 µM | TGI [8]: 44 µM | TGI [9]: 28.7 µM | TGI [10]: 26.4 µM

O=C(O)c1nn(-c2ccccc2)nc1-c1nn(-c2ccccc2)nc1C(=O)O
TGI [1]: > 100 µM | TGI [2]: > 100 µM | TGI [3]: > 100 µM | TGI [4]: > 100 µM | TGI [5]: > 100 µM | TGI [6]: > 100 µM | TGI [7]: > 100 µM | TGI [8]: > 100 µM | TGI [9]: > 100 µM | TGI [10]: > 100 µM

C(=C/c1nnnn1-c1ccccc1)/Nc1ccccc1
TGI [1]: 97.7 µM | TGI [2]: 95.7 µM | TGI [3]: > 100 µM | TGI [4]: > 100 µM | TGI [5]: > 100 µM | TGI [6]: 70.4 µM | TGI [7]: 61.6 µM | TGI [8]: > 100 µM | TGI [9]: > 100 µM | TGI [10]: 77.5 µM

COc1cc2c[n+](C)c3c4cc(OC)c(OCc5ccccc5)cc4c(OCc4ccccc4)cc3c2cc1OC
TGI [1]: 32.4 µM | TGI [2]: 22 µM | TGI [3]: > 25 µM | TGI [4]: 18 µM | TGI [5]: 18.4 µM | TGI [6]: 12 µM | TGI [7]: 43.9 µM | TGI [8]: > 100 µM | TGI [9]: 20.2 µM | TGI [10]: 79 µM

O=c1[nH]c(=O)n(C2CC(O)C(CO)O2)cc1Br (stereo not drawn)
TGI [1]: > 100 µM | TGI [2]: > 100 µM | TGI [3]: > 100 µM | TGI [4]: > 100 µM | TGI [5]: > 100 µM | TGI [6]: > 100 µM | TGI [7]: > 100 µM | TGI [8]: > 100 µM | TGI [9]: > 100 µM | TGI [10]: > 100 µM

COc1ccc(/C=C/C(=O)c2ccc(Br)cc2)cc1
TGI [1]: > 100 µM | TGI [2]: > 100 µM | TGI [3]: > 100 µM | TGI [5]: > 100 µM | TGI [6]: > 100 µM | TGI [7]: > 100 µM | TGI [8]: > 100 µM | TGI [9]: > 100 µM | TGI [10]: > 100 µM

Cc1nc2ccc(NC3OCC(O)C(O)C3O)cc2c(=O)n1-c1ccccc1 (stereo not drawn)
TGI [1]: > 100 µM | TGI [2]: > 100 µM | TGI [3]: > 100 µM | TGI [4]: > 100 µM | TGI [5]: > 100 µM | TGI [6]: > 100 µM | TGI [7]: > 100 µM | TGI [8]: > 100 µM | TGI [9]: > 100 µM | TGI [10]: > 100 µM

COc1ccc2c(c1)/c(=C/C#N)c1c3ccccc3[n+](C)n21
TGI [1]: 6.83 µM | TGI [2]: 12.5 µM | TGI [3]: > 69.8 µM | TGI [4]: 28.6 µM | TGI [5]: 64.4 µM | TGI [6]: 40.9 µM | TGI [7]: 21.4 µM | TGI [8]: 42.8 µM | TGI [9]: 14.3 µM | TGI [10]: 20.7 µM
